Tests used:
Assay type in all cases: biochemical
Conditions in all cases: for inhibition at 0.1 µM: compound at 100 nM, [ATP] = Km
EGFR (ErbB1) = molecular target: T1, EGFR (ErbB1) (Homo sapiens, UniProt P00533); experiment: Z'-LYTE kinase inhibition assay (Invitrogen), EGFR
T1 construct: purchased Invitrogen
Experimental: (§1) Inhibitory activities of compounds against BTK, EGFR and EGFR mutants (EGFR L858R/T790M) were measured by Invitrogen using Z′-LYTE® Method as briefly described in the following.
(§2) Test Compounds are screened in 1% DMSO (final) in the well. For 10 point titrations, 3-fold serial dilutions are conducted from the starting concentration. All ATP Solutions are diluted to a 4× working concentration in Kinase Buffer (50 mM HEPES pH 7.5, 0.01% BRIJ-35, 10 mM MgCl2, 1 mM EGTA). Peptide/Kinase Mixtures are diluted to a 2× working concentration in the appropriate Kinase Buffers as described below.
(i) Peptide/Kinase Mixtures for measurement of EGFR (ErbB1):
The 2×EGFR (ErbB1)/Tyr 04 mixture is prepared in 50 mM HEPES pH 7.5, 0.01% BRIJ-35, 10 mM MgCl2, 4 mM MnCl2, 1 mM EGTA, 2 mMDTT. The final 10 μL Kinase Reaction consists of 1.1-5.25 ng EGFR (ErbB1) and 2 μM Tyr 04 in 50 mM HEPES pH 7.5, 0.01% BRIJ-35, 10 mM MgCl2, 2 mM MnCl2, 1 mM EGTA, 1 mM DTT. After the 1 hour Kinase Reaction incubation, 5 μL of a 1:64 dilution of DevelopmentReagent B is added.
(§3) Reaction starts by 30-second shaking of mixture consisting of 2.5 μL 4× test compound, 5 μL 2× kinase reaction mixture and 2.5 μL 4×ATP Solution on Bar-coded Corning, low volume NBS, black 384-well plate (Corning Cat. #3676). Then the mixture is incubated for 60-minute at room temperature for the kinase reaction, followed by addition of 5 μL of a 1:1024 dilution of development reagent A and 30-second plate shake. The mixture is then incubated for another 60-minute at room temperature for development reaction. Finally fluorescence is read by plate reader. […] The scale utilized in Tables 2 and 3 is as follows: ++ more than 50% inhibition and + less than 50% inhibition.
(§4) To determine IC50 of a compound against EGFR or EGFR mutants, a series of concentrations of the compound were tested for the inhibition. IC50 was calculated by plotting the concentration of compound vs the percentage of inhibition in treated wells using GraphPad Prism 5. […] The scale utilized in Table 4 is as follows: ++ less than 100 nM and + greater than 100 nM.

EGFR (ErbB1) T790M L858R = molecular target: T2, EGFR (ErbB1) T790M L858R (Homo sapiens, UniProt P00533, L858R/T790M); experiment: Z'-LYTE kinase inhibition assay (Invitrogen), EGFR L858R/T790M
T2 construct: purchased Invitrogen
Experimental: as §1, §2
(iv) Peptide/Kinase Mixtures for measurement of EGFR (ErbB1) T790M L858R:
The 2×EGFR (ErbB1) T790M L858R/Tyr 04 mixture is prepared in 50 mM HEPES pH 6.5, 0.01% BRIJ-35, 10 mM MgCl2, 1 mM EGTA, 0.02% NaN3. The final 10 μL Kinase Reaction consists of 0.38-4.22 ng EGFR (ErbB1) T790M L858R and 2 μM Tyr 04 in 50 mM HEPES pH 7.0, 0.01% BRIJ-35, 10 mM MgCl2, 1 mM EGTA, 0.01% NaN3. After the 1 hour Kinase Reaction incubation, 5 μL of a 1:64 dilution of Development Reagent B is added.
as §3, §4

BTK = molecular target: T3, BTK (Homo sapiens, UniProt Q06187); experiment: Z'-LYTE kinase inhibition assay (Invitrogen), BTK
T3 construct: purchased Invitrogen
Experimental: as §1, §2
(v) Peptide/Kinase Mixtures for measurement of BTK:
The 2×BTK/Tyr 01 mixture is prepared in 50 mM HEPES pH 7.5, 0.01% BRIJ-35, 10 mM MgCl2, 1 mM EGTA. The final 10 μL Kinase Reaction consists of 1.04-10.4 ng BTK and 2 μM Tyr 01 in 50 mM HEPES pH 7.5, 0.01% BRIJ-35, 10 mM MgCl2, 1 mM EGTA. After the 1 hour Kinase Reaction incubation, 5 μL of a 1:256 dilution of Development Reagent B is added.
as §3, §4

T3 sequence (Q06187 whole entry): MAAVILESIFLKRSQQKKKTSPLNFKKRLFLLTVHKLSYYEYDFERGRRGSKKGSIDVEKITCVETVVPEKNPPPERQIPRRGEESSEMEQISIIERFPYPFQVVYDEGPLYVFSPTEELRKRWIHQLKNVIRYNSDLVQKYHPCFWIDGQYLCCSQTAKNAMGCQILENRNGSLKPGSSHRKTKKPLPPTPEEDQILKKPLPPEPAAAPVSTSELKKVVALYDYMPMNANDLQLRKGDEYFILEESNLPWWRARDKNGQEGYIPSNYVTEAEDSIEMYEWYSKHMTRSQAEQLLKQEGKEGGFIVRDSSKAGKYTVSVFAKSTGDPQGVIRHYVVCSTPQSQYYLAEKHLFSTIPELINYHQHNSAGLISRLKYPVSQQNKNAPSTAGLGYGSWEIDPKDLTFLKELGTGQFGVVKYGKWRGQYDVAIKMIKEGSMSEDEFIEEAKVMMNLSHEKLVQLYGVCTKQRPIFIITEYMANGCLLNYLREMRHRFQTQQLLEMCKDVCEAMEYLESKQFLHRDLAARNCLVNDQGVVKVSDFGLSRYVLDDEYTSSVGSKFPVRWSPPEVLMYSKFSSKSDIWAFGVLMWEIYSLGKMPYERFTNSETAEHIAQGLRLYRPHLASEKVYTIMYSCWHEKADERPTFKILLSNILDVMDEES
T2 sequence (P00533 25-1210 T790M/L858R): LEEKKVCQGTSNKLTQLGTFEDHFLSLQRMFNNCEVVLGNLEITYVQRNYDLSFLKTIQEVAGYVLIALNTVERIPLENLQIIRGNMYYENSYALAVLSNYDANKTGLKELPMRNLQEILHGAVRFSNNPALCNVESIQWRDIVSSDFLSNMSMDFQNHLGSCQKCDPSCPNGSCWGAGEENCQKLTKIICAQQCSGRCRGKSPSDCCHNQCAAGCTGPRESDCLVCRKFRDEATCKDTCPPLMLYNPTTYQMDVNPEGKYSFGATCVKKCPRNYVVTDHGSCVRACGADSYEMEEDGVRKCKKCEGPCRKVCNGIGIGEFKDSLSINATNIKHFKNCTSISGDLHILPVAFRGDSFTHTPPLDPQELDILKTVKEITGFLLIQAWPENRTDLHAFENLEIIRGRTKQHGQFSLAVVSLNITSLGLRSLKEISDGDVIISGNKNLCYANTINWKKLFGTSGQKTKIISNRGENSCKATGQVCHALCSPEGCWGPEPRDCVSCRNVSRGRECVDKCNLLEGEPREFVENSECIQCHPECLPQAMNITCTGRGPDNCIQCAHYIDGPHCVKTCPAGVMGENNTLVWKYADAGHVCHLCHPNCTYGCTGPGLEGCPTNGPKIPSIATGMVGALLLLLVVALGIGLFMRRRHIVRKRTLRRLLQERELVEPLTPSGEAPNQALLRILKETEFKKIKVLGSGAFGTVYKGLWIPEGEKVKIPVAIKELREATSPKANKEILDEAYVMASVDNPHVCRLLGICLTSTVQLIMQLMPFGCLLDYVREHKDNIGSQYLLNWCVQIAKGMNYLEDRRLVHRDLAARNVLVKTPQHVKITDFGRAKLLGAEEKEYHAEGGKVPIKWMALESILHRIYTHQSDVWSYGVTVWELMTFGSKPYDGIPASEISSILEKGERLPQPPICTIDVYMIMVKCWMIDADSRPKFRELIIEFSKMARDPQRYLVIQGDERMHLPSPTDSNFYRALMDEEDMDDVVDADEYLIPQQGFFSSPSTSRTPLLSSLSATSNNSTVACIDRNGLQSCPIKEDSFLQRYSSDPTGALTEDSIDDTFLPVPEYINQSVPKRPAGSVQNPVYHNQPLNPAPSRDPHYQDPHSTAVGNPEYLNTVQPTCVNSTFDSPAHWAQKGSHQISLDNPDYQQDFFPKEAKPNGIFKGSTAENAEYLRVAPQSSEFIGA
T1 sequence (P00533 25-1210): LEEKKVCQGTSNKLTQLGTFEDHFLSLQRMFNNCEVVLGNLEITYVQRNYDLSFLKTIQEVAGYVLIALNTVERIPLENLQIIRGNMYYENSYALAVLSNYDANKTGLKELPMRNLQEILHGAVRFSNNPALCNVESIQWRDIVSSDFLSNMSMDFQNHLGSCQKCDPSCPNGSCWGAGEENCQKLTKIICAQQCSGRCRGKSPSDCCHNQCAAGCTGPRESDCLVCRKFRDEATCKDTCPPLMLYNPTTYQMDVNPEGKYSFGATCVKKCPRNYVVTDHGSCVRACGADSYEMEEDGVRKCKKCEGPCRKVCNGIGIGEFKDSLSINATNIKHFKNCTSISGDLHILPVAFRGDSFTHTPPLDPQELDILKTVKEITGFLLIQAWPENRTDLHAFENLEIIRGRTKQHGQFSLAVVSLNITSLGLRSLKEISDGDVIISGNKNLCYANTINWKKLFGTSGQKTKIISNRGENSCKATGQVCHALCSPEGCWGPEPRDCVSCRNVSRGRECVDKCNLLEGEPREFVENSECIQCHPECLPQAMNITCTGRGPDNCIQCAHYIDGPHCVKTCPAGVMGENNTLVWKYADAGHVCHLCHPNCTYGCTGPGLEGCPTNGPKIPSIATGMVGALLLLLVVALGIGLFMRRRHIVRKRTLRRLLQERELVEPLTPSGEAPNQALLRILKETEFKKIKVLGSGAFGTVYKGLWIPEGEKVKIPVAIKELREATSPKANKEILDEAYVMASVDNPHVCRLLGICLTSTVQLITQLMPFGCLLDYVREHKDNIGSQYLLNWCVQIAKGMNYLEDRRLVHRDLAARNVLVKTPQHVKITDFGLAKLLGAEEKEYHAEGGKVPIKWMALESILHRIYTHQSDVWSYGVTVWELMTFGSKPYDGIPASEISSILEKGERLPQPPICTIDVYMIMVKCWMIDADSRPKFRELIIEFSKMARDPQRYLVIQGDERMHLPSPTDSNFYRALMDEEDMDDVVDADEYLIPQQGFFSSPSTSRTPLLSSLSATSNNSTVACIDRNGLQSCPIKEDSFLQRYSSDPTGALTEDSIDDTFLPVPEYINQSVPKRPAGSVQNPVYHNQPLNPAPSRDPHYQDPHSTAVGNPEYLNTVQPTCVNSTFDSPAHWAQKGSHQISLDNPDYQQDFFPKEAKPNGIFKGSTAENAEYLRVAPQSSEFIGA

SMILES	IC50 (EGFR (ErbB1)) [nM]	IC50 (EGFR (ErbB1) T790M L858R) [nM]	IC50 (BTK) [nM]	inhibition at 0.1 µM (BTK) [%]	inhibition at 0.1 µM (EGFR (ErbB1)) [%]	inhibition at 0.1 µM (EGFR (ErbB1) T790M L858R) [%]
C=CC(=O)Nc1cccc(-n2cnc3cnc(Nc4ccc(N5CCN(C)CC5)cc4)nc32)c1 [Example A002, N-(3-(2-((4-(4-methylpiperazin-1-yl)phenyl)amino)-9H-purin-9-yl)phenyl)acrylamide]	> 100	> 100	< 100	> 50		
C=CC(=O)N1CCCC(n2cnc3cnc(Nc4ccc(N5CCN(CCO)CC5)c(F)c4F)nc32)C1 (stereo not drawn) [Example A024, 1-(3-(2-((2,3-difluoro-4-(4-(2-hydroxyethyl)piperazin-1-yl)phenyl)amino)-9H-purin-9-yl)piperidin-1-yl)prop-2-en-1-one]				< 50	< 50	< 50
C=CC(=O)N1CCC(n2cnc3cnc(Nc4ccc(N5CCN(CCO)CC5)cc4F)nc32)C1 (stereo not drawn) [Example A008, 1-(3-(2-((2-fluoro-4-(4-(2-hydroxyethyl)piperazin-1-yl)phenyl)amino)-9H-purin-9-yl)pyrrolidin-1-yl)prop-2-en-1-one]				< 50		
C=CC(=O)Nc1cccc(-n2cnc3cnc(Nc4ccc(N5CCN(C)CC5)c(F)c4)nc32)c1 [Example A010, N-(3-(2-((3-fluoro-4-(4-methylpiperazin-1-yl)phenyl)amino)-9H-purin-9-yl)phenyl)acrylamide]	> 100	> 100	< 100	> 50		
C=CC(=O)Nc1cccc(-n2cnc3cnc(Nc4ccc(N5CCN(CCO)CC5)c(F)c4F)nc32)c1 [Example A014, N-(3-(2-((2,3-difluoro-4-(4-(2-hydroxyethyl)piperazin-1-yl)phenyl)amino)-9H-purin-9-yl)phenyl)acrylamide]				< 50	< 50	< 50
C=CC(=O)N1CCCC(n2cnc3cnc(Nc4ccc(N5CCN(C)CC5)c(F)c4F)nc32)C1 (stereo not drawn) [Example A023, 1-(3-(2-((2,3-difluoro-4-(4-methylpiperazin-1-yl)phenyl)amino)-9H-purin-9-yl)piperidin-1-yl)prop-2-en-1-one]				< 50	< 50	< 50
C=CC(=O)N1CCC(n2cnc3cnc(Nc4ccc(N5CCN(CCO)CC5)c(F)c4)nc32)C1 (stereo not drawn) [Example A007, 1-(3-(2-((3-fluoro-4-(4-(2-hydroxyethyl)piperazin-1-yl)phenyl)amino)-9H-purin-9-yl)pyrrolidin-1-yl)prop-2-en-1-one]				> 50		
C=CC(=O)Nc1cccc(-n2cnc3cnc(Nc4ccc(N5CCN(C)CC5)c(F)c4F)nc32)c1 [Example A019, N-(3-(2-((2,3-difluoro-4-(4-methylpiperazin-1-yl)phenyl)amino)-9H-purin-9-yl)phenyl)acrylamide]				< 50	< 50	< 50
C=CC(=O)N1CCCC(n2cnc3cnc(Nc4ccc(N5CCN(C)CC5)cc4F)nc32)C1 (stereo not drawn) [Example A018, 1-(3-(2-((2-fluoro-4-(4-methylpiperazin-1-yl)phenyl)amino)-9H-purin-9-yl)piperidin-1-yl)prop-2-en-1-one]				< 50	< 50	< 50
C=CC(=O)N1CCCC(n2cnc3cnc(Nc4ccc(N5CCN(C)CC5)c(F)c4)nc32)C1 (stereo not drawn) [Example A009, 1-(3-(2-((3-fluoro-4-(4-methylpiperazin-1-yl)phenyl)amino)-9H-purin-9-yl)piperidin-1 yl)prop-2-en-1-one]	> 100	> 100	< 100	> 50		
C=CC(=O)N1CCCC(n2cnc3cnc(Nc4ccc(N5CCN(CCO)CC5)c(F)c4)nc32)C1 (stereo not drawn) [Example A012]				> 50	< 50	< 50
C=CC(=O)N1CCC(n2cnc3cnc(Nc4ccc(N5CCN(C)CC5)cc4)nc32)C1 (stereo not drawn) [Example A005, 1-(3-(2-((4-(4-methylpiperazin-1-yl)phenyl)amino)-9H-purin-9-yl)pyrrolidin-1-yl)prop-2-en-1-one]				> 50		
C=CC(=O)Nc1cccc(-n2cnc3cnc(Nc4ccc(N5CCN(C)CC5)cc4F)nc32)c1 [Example A021, N-(3-(2-((2-fluoro-4-(4-methylpiperazin-1-yl)phenyl)amino)-9H-purin-9-yl)phenyl)acrylamide]				< 50	< 50	< 50
C=CC(=O)N1CCC(n2cnc3cnc(Nc4ccc(N5CCN(C)CC5)c(F)c4)nc32)C1 (stereo not drawn) [Example A004, 1-(3-(2-((3-Fluoro-4-(4-methylpiperazin-1-yl)phenyl)amino)-9H-purin-9-yl)pyrrolidin-1-yl)prop-2-en-1-one]				> 50		
C=CC(=O)N1CCC(n2cnc3cnc(Nc4ccc(N5CCN(CCO)CC5)c(F)c4F)nc32)C1 (stereo not drawn) [Example A022]				< 50	< 50	< 50
C=CC(=O)N1CCC(n2cnc3cnc(Nc4ccc(N5CCN(C)CC5)cc4F)nc32)C1 (stereo not drawn) [Example A017, 1-(3-(2-((2-fluoro-4-(4-methylpiperazin-1-yl)phenyl)amino)-9H-purin-9-yl)pyrrolidin-1-yl)prop-2-en-1-one]				< 50	< 50	< 50
C=CC(=O)Nc1cccc(-n2cnc3cnc(Nc4ccc(N5CCN(CCO)CC5)cc4F)nc32)c1 [Example A003, N-(3-(2-((2-fluoro-4-(4-(2-hydroxyethyl)piperazin-1-yl)phenyl)amino)-9H-purin-9-yl)phenyl)acrylamide]				< 50		
C=CC(=O)N1CCCC(n2cnc3cnc(Nc4ccc(N5CCN(CCO)CC5)cc4)nc32)C1 (stereo not drawn) [Example A013, 1-(3-(2-((4-(4-(2-hydroxyethyl)piperazin-1-yl)phenyl)amino)-9H-purin-9-yl)piperidin-1-yl)prop-2-en-1-one]				> 50	< 50	< 50
C=CC(=O)N1CCCC(n2cnc3cnc(Nc4ccc(N5CCN(CCO)CC5)cc4F)nc32)C1 (stereo not drawn) [Example A016, 1-(3-(2-((2-fluoro-4-(4-(2-hydroxyethyl)piperazin-1-yl)phenyl)amino)-9H-purin-9-yl)piperidin-1-yl)prop-2-en-1-one]				< 50	< 50	< 50
C=CC(=O)Nc1cccc(-n2cnc3cnc(Nc4ccc(N5CCN(CCO)CC5)cc4)nc32)c1 [Example A015, N-(3-(2-((4-(4-(2-hydroxyethyl)piperazin-1-yl)phenyl)amino)-9H-purin-9-yl)phenyl)acrylamide]				> 50	< 50	< 50
C=CC(=O)Nc1cccc(-n2cnc3cnc(Nc4ccc(N5CCN(CCO)CC5)c(F)c4)nc32)c1 [Example A020]				> 50	< 50	> 50
C=CC(=O)N1CCC(n2cnc3cnc(Nc4ccc(N5CCN(CCO)CC5)cc4)nc32)C1 (stereo not drawn) [Example A006, 1-(3-(2-((4-(4-(2-hydroxyethyl)piperazin-1-yl)phenyl)amino)-9H-purin-9-yl)pyrrolidin-1-yl)prop-2-en-1-one]				> 50		
